Test results published in ChEMBL document CHEMBL5537182, “Small Molecule Benzothiophene with In Vivo Efficacy in a Mouse Model of Drug-Resistant Enterococcus faecium Infection” (J Med Chem, 2024).
Converted amounts (≈) assume the structure as drawn. The source made the active and inactive calls. The calls are words filed in the database; no cut-off is given here.

Assays:
[1] = AUC (0 to 5 hrs) in CD-1 mouse at 25 mg/kg, po by LC-MS/MS analysis; format: ADME, organism-based; settings: in vivo; for AUC(0-t): CD-1, mouse
[2] = Metabolic stability in mouse liver microsomes assessed as half life by LC-MS/MS analysis; format: ADME, Microsome
[3] = system: Enterococcus faecium; assay: Anti-bacterial activity against drug-resistant Enterococcus faecium NCTC 7171 assessed as invisible pellets in media measured after overnight incubation; format: functional
[4] = Cytotoxicity against African green monkey Vero cells assessed as cell viability incubated for 48 hrs by MTT assay; format: toxicity, cell-based; settings: chlorocebus sabaeus
[5] = Kinetic solubility of the compound in aqueous buffer at pH 7.4 measured after 4 hrs by LC-MS/MS analysis; format: physicochemical; settings: read-out: Kinetic_solubility
[6] = Oral bioavailability in CD-1 mouse at 25 mg/kg by LC-MS/MS analysis; format: ADME, organism-based; settings: in vivo
[7] = molecular target: Cytochrome P450 2D6 (Homo sapiens, UniProt P10635); assay: Inhibition of CYP2D6 in human liver microsomes using dextromethorphan as substrate; format: ADME, Microsome
Sequence of Cytochrome P450 2D6 (P10635 whole entry): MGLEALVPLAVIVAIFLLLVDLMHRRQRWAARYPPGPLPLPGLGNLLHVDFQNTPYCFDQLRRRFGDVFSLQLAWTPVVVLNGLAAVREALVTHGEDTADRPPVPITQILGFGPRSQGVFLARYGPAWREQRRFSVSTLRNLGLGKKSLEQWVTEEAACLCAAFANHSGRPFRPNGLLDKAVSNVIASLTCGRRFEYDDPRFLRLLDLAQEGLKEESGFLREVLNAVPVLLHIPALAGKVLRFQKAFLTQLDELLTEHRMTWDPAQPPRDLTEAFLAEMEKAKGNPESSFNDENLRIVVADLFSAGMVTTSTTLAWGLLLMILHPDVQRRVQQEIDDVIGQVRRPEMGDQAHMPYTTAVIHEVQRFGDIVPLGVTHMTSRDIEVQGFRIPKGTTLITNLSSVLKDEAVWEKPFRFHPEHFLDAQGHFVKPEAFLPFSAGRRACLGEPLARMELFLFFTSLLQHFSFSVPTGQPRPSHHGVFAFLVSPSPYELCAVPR

[8] = Plasma protein binding in mouse at 5 uM measured after 5 hrs by LC-MS/MS analysis; format: ADME, cell-free; settings: read-out: PPB
[9] = Plasma stability in mouse plasma assessed as remaining at 5 uM measured after 5 hrs by LC-MS/MS analysis; format: ADME, cell-free
[10] = molecular target: Cytochrome P450 2C19 (Homo sapiens, UniProt P33261); assay: Inhibition of CYP2C19 in human liver microsomes using omeprazole as substrate; format: ADME, Microsome
Sequence of Cytochrome P450 2C19 (P33261 whole entry): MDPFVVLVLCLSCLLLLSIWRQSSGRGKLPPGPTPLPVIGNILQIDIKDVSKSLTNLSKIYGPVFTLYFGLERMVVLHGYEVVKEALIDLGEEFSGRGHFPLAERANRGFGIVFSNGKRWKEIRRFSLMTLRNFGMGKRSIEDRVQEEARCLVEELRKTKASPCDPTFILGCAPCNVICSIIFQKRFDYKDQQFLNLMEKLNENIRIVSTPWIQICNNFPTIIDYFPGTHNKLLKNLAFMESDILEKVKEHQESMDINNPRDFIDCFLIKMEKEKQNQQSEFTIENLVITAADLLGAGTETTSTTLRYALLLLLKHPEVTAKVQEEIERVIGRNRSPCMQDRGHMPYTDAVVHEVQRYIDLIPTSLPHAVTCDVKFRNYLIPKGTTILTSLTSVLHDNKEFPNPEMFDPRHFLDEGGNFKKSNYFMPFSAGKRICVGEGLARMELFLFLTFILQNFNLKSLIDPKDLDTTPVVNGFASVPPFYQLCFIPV

[11] = Metabolic stability in human liver microsomes assessed as half life by LC-MS/MS analysis; format: ADME, Microsome
[12] = system: Enterococcus faecium; assay: In vivo anti-bacterial activity against vancomycin-resistant Enterococcus faecium EN 2966 infected immunocompetent mouse model of acute peritonitis-sepsis assessed as protection at 150 mg/kg, po measured upto 3 days; format: functional, organism-based; settings: time <= 3.0 day
[13] = molecular target: Cytochrome P450 2C9 (Homo sapiens, UniProt P11712); assay: Inhibition of CYP2C9 in human liver microsomes using diclofenac as substrate; format: ADME, Microsome
Sequence of Cytochrome P450 2C9 (P11712 whole entry): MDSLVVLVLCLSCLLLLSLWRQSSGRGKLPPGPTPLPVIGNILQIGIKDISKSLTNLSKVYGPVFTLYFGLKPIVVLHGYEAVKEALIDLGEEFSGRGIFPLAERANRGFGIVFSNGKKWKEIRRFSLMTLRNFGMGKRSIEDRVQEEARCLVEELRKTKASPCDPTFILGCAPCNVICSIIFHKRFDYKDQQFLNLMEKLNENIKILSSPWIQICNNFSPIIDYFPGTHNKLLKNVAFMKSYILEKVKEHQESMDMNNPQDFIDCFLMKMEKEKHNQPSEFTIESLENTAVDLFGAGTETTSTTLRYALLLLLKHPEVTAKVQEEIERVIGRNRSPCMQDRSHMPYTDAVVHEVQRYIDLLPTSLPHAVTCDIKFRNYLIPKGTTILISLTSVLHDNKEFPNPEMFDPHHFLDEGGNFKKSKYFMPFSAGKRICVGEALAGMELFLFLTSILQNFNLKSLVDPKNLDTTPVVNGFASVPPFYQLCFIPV

[14] = Toxicity in CD-1 mouse assessed as tolerability at 300 mg/kg, po; format: organism-based; settings: in vivo
[15] = Plasma protein binding in human at 5 uM measured after 5 hrs by LC-MS/MS analysis; format: ADME, cell-free; settings: read-out: PPB (converted)
[16] = molecular target: T1, Cytochrome P450 1A2 (Homo sapiens, UniProt P05177); assay: Inhibition of CYP1A2 in human liver microsomes using phenacetin as substrate; format: ADME, Microsome
T1 sequence (P05177 whole entry): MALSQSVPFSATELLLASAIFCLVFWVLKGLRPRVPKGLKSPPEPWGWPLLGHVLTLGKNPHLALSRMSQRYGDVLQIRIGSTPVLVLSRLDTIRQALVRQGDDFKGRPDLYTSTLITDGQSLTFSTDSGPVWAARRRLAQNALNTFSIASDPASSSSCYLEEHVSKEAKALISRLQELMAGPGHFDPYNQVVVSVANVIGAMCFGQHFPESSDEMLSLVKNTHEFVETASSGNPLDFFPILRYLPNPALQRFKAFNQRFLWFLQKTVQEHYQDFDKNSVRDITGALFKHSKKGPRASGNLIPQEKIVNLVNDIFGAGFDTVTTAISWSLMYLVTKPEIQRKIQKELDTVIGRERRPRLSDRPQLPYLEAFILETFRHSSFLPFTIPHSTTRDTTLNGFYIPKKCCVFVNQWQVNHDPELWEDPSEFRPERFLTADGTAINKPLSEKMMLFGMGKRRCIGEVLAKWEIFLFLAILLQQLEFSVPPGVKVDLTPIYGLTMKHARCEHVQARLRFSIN

[17] = Plasma stability in human plasma assessed as remaining at 5 uM measured after 5 hrs by LC-MS/MS analysis; format: ADME, cell-free
[18] = molecular target: Cytochrome P450 3A4 (Homo sapiens, UniProt P08684); assay: Inhibition of CYP3A4 in human liver microsomes using midazolam as substrate; format: ADME, Microsome
Sequence of Cytochrome P450 3A4 (P08684 whole entry): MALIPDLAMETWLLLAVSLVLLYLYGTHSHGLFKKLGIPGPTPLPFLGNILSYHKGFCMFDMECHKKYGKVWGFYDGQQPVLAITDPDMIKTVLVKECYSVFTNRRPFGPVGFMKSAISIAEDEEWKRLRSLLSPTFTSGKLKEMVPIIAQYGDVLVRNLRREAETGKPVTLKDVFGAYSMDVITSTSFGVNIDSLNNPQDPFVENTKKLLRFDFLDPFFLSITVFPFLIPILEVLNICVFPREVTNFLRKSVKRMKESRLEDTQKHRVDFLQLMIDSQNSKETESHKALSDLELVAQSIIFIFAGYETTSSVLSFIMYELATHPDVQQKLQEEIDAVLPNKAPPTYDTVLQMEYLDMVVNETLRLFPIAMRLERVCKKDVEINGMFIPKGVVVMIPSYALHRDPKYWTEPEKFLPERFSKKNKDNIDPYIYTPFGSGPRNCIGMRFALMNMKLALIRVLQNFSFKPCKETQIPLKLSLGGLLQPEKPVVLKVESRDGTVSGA

[19] = system: Enterococcus faecium; assay: Anti-bacterial activity against vancomycin-resistant Enterococcus faecium EN 2966 assessed as invisible pellets in media measured after overnight incubation; format: functional
[20] = system: Enterococcus faecium; assay: Release of NO in drug-resistant Enterococcus faecium NCTC 7171 assessed as NO generation at 100 uM measured upto 2 hrs by Griess assay; format: functional, organism-based
[21] = system: Klebsiella pneumoniae; assay: Anti-bacterial activity against Klebsiella pneumonia BAA 2146 assessed as invisible pellets in media measured after overnight incubation; format: functional
[22] = system: Pseudomonas aeruginosa; assay: Anti-bacterial activity against Pseudomonas aeruginosa HER 1018 assessed as invisible pellets in media measured after overnight incubation; format: functional
[23] = system: Enterococcus faecium; assay: Bactericidal activity against drug-resistant Enterococcus faecium NCTC 7171 assessed as invisible pellets in media measured after 2 days incubation; format: functional; settings: NCTC 7171, 48 h, time 2 day
[24] = system: Acinetobacter baumannii; assay: Anti-bacterial activity against Acinetobacter baumannii ATCC 19606 assessed as invisible pellets in media measured after overnight incubation; format: functional
[25] = system: Staphylococcus aureus; assay: Anti-bacterial activity against Staphylococcus aureus ATCC 43300 assessed as invisible pellets in media measured after overnight incubation; format: functional
[26] = system: Enterococcus faecium; assay: In vivo anti-bacterial activity against vancomycin-resistant Enterococcus faecium EN 2966 infected immunocompetent mouse model of acute peritonitis-sepsis assessed as protection at 100 mg/kg, sc measured upto 3 days; format: functional, organism-based; settings: time <= 3.0 day

Row | SMILES | MIC [3] | CC50 [4] | further results
1 | O=C(NNC(=O)c1cc2cc(Cl)cc(Cl)c2s1)c1ccc([N+](=O)[O-])o1 | 0.75 µM (≈ 0.3 µg/mL) | 124 µM | AUC(0-t) [1]: 111000 ng·h/mL; t1/2 [2]: 13.3 min; solubility kinetic at 4 h [5]: 0.55 µM (≈ 0.22 µg/mL)
2 | O=C(NNC(=O)c1sc2cc(Cl)ccc2c1Cl)c1ccc([N+](=O)[O-])o1 | 1.9 µM (≈ 0.76 µg/mL) | > 120 µM | F [6]: 47%; AUC ([1]; mouse, po, 25 mg/kg): 75175 ng·h/mL; IC50 [7]: > 50 µM; t1/2 [2]: 16.6 min; fraction unbound at 5 h, 5 µM [8]: 0.0001; Stability [9]: 89.2%; IC50 [10]: > 50 µM; t1/2 [11]: 85.6 min; Activity [12]: Active; IC50 [13]: > 50 µM; Activity [14]: Non-Toxic; fraction unbound at 5 h, 5 µM [15]: 0.007; IC50 [16]: > 50 µM; Stability [17]: 76.6%; IC50 [18]: > 50 µM; solubility kinetic at 4 h [5]: 0.35 µM (≈ 0.14 µg/mL); MIC [19]: 1.9 µM (≈ 0.76 µg/mL); Activity [20]: inactive
3 | O=C(NNC(=O)c1sc2cc(Cl)ccc2c1Cl)c1ccc(Cl)s1 | > 123 µM | 123 µM | 
4 | CC(C)(NC(=O)c1ccc([N+](=O)[O-])o1)c1cc2ccccc2s1 | > 150 µM | 38 µM | 
5 | C[C@@H](O)[C@H]1C(=O)N2C(C(=O)O)=C(S[C@@H]3CN[C@H](C(=O)N(C)C)C3)[C@H](C)[C@H]12 [MEROPENEM] | 19 µM (≈ 7.29 µg/mL) |  | 
6 | O=C(NNC(=O)c1sc2cc(F)ccc2c1Cl)c1ccc([N+](=O)[O-])o1 | > 130 µM | > 130 µM | 
7 | O=C(NNC(=O)c1cc2c(s1)CCCC2)c1ccc([N+](=O)[O-])o1 | 37 µM (≈ 12.4 µg/mL) | 37 µM | 
8 | NC[C@H]1O[C@H](O[C@H]2[C@H](O)[C@@H](O[C@H]3O[C@H](CO)[C@@H](O)[C@H](N)[C@H]3O)[C@H](N)C[C@@H]2N)[C@H](O)[C@@H](O)[C@@H]1O [KANAMYCIN] | > 24 µM |  | 
9 | O=C(NNC(=O)c1sc2cc(C(F)(F)F)ccc2c1Cl)c1ccc([N+](=O)[O-])o1 | 3.6 µM (≈ 1.56 µg/mL) | 110 µM | 
10 | O=C(NNC(=O)c1cc2cc(C(F)(F)F)cc(Cl)c2s1)c1ccc([N+](=O)[O-])o1 | 1.8 µM (≈ 0.781 µg/mL) | > 110 µM | AUC(0-t) [1]: 43800 ng·h/mL; t1/2 [2]: 57.8 min; MIC [21]: > 120 µM; MIC [22]: > 120 µM; MBC [23]: 7.7 µM (≈ 3.34 µg/mL); MIC [24]: > 120 µM; MIC [25]: 16 µM (≈ 6.94 µg/mL); solubility kinetic at 4 h [5]: 0.06 µM (≈ 0.026 µg/mL)
11 | O=C(NNC(=O)c1sc2cc(Cl)ccc2c1Cl)c1ccc(Cl)o1 | > 128 µM | 128 µM | 
12 | O=C(NNC(=O)c1cc2c(Cl)cccc2s1)c1ccc([N+](=O)[O-])o1 | 34 µM (≈ 12.4 µg/mL) | 136 µM | 
13 | O=C(NNC(=O)c1sc2ccc(Cl)cc2c1Cl)c1ccc([N+](=O)[O-])o1 | > 124 µM | > 124 µM | 
14 | O=[N+]([O-])c1ccc(-c2nnc(-c3cc4ccccc4s3)o2)o1 | > 160 µM | 160 µM | 
15 | O=C(NCCNC(=O)c1cc2ccccc2s1)c1ccc([N+](=O)[O-])o1 | > 140 µM | 139 µM | 
16 | O=C(NNC(=O)c1cc2cc(Cl)ccc2s1)c1ccc([N+](=O)[O-])o1 | > 137 µM | > 137 µM | 
17 | O=C(NNC(=O)c1cc2ccc(Cl)cc2s1)c1ccc([N+](=O)[O-])o1 | > 136 µM | > 136 µM | 

Row | SMILES | MIC [3] | CC50 [4] | further results
18 | O=C(NNC(=O)c1cc2cccc(Cl)c2s1)c1ccc([N+](=O)[O-])o1 | 4.2 µM (≈ 1.54 µg/mL) | 68 µM | 
19 | O=C(N/N=C/c1cc2ccccc2s1)c1ccc([N+](=O)[O-])o1 | > 158 µM | 39 µM | 
20 | O=C(NNC(=O)c1cc2cccnc2s1)c1ccc([N+](=O)[O-])o1 | > 100 µM | 150 µM | 
21 | O=C(c1ccc([N+](=O)[O-])o1)N1CCN(C(=O)c2cc3ccccc3s2)CC1 | > 130 µM | 16 µM | 
22 | CCCCCCCCCC(=O)N[C@@H](Cc1c[nH]c2ccccc12)C(=O)N[C@H](CC(N)=O)C(=O)N[C@@H](CC(=O)O)C(=O)N[C@@H]1C(=O)NCC(=O)N[C@@H](CCCN)C(=O)N[C@@H](CC(=O)O)C(=O)N[C@H](C)C(=O)N[C@@H](CC(=O)O)C(=O)NCC(=O)N[C@H](CO)C(=O)N[C@@H]([C@H](C)CC(=O)O)C(=O)N[C@@H](CC(=O)c2ccccc2N)C(=O)O[C@@H]1C | 10 µM (≈ 16.2 µg/mL) |  | 
23 | O=C(NNC(=O)c1cc2c(Cl)cc(Cl)cc2s1)c1ccc([N+](=O)[O-])o1 | 62 µM (≈ 24.8 µg/mL) | > 124 µM | 
24 | O=C(NNC(=O)c1cc2ccccc2s1)c1ccc([N+](=O)[O-])o1 | > 174 µM |  | AUC(0-t) [1]: 1280 ng·h/mL; t1/2 [2]: 3.3 min; MIC [21]: > 150 µM; MIC [22]: > 150 µM; MIC [24]: > 150 µM; MIC [25]: > 150 µM; solubility kinetic at 4 h [5]: 103 µM (≈ 34.1 µg/mL)
25 | O=C(NNC(=O)c1sc2ccccc2c1Cl)c1ccc([N+](=O)[O-])o1 | 17 µM (≈ 6.22 µg/mL) | 68 µM | 
26 | CC(=O)NC[C@H]1CN(c2ccc(N3CCOCC3)c(F)c2)C(=O)O1 [LINEZOLID] | 4.6 µM (≈ 1.55 µg/mL) |  | MIC [19]: 4.7 µM (≈ 1.59 µg/mL)
27 | O=C(NNC(=O)c1nc2ccccc2s1)c1ccc([N+](=O)[O-])o1 | 30 µM (≈ 9.97 µg/mL) | 150 µM | 
28 | O=C(NNC(=O)c1cc2ccccc2o1)c1ccc([N+](=O)[O-])o1 | > 100 µM | 39 µM | 
29 | O=C(NNC(=O)c1csc2ccccc12)c1ccc([N+](=O)[O-])o1 | 15 µM (≈ 4.97 µg/mL) | 75 µM | 
30 | CN[C@H](CC(C)C)C(=O)N[C@H]1C(=O)N[C@@H](CC(N)=O)C(=O)N[C@H]2C(=O)N[C@H]3C(=O)N[C@H](C(=O)N[C@H](C(=O)O)c4cc(O)cc(O)c4-c4cc3ccc4O)[C@H](O)c3ccc(c(Cl)c3)Oc3cc2cc(c3O[C@@H]2O[C@H](CO)[C@@H](O)[C@H](O)[C@H]2O[C@H]2C[C@](C)(N)[C@H](O)[C@H](C)O2)Oc2ccc(cc2Cl)[C@H]1O [VANCOMYCIN] | 1.1 µM (≈ 1.59 µg/mL) |  | Activity [26]: Active; MIC [19]: ≥ 30 µM
31 | O=C(NNC(=O)c1ccc([N+](=O)[O-])o1)c1cc2ccccc2[nH]1 | > 100 µM | > 160 µM | 
32 | O=C(NNC(=O)c1sc2cccc(Cl)c2c1Cl)c1ccc([N+](=O)[O-])o1 | 7.8 µM (≈ 3.12 µg/mL) | > 124 µM | 
33 | O=C(NNC(=O)c1sc2cc(Cl)ccc2c1Cl)c1ccc([N+](=O)[O-])s1 | > 120 µM | > 120 µM | 
34 | O=C(NNC(=O)c1sc2c(Cl)cccc2c1Cl)c1ccc([N+](=O)[O-])o1 | 62 µM (≈ 24.8 µg/mL) | > 120 µM | 
